{
  "source": "patent US20160137746A1",
  "about": "“METHODS FOR TREATING HIGH CARDIOVASCULAR RISK PATIENTS WITH HYPERCHOLESTEROLEMIA” (Sanofi Biotechnology, priority 2014, published 2016)",
  "key": {"[1]": {"tested_on": "high cardiovascular risk patients with hypercholesterolemia", "test": "ODYSSEY COMBO I: antibodies to alirocumab", "format": "in vivo, human", "description": "In seven of these patients, the antibodies were transient and resolved despite continued alirocumab treatment."}, "[2]": {"tested_on": "high cardiovascular risk patients with hypercholesterolemia", "test": "ODYSSEY LONG TERM: lipid efficacy of alirocumab 150 mg Q2W vs placebo", "format": "in vivo, human", "details": "for Percent change from baseline in calculated LDL-C at week 24 (%), LS means (SE) / Percent change from baseline in calculated LDL-C at week 24, LS mean difference (SE) vs placebo / Calculated LDL-C percent change from baseline, LS mean (SE): ITT population; for Percent change from baseline in calculated LDL-C at week 24 (%), LS means (SE) / Percent change from baseline in calculated LDL-C at week 24, LS mean difference (SE) vs placebo: 150 Q2W; for Calculated LDL-C percent change from baseline, LS mean (SE): MMRM, alirocumab 150 Q2W", "procedure": "Patients were stratified according to heFH population, prior history of MI or ischemic stroke, statin treatment and geographic region. Patients at high cardiovascular risk were defined as 1) having heFH (who may or may not have CHD/CHD risk equivalents) or 2) no prior diagnosis of heFH but having hypercholesterolemia together with established CHD or CHD risk equivalents.\nPrimary analyses of efficacy endpoints were conducted using an ITT approach (based on the ITT population defined above), including all lipid data, regardless of whether the patient was continuing therapy or not. This corresponds to ITT estimands, defined for primary and key secondary endpoints. In addition, analyses were also conducted using an on-treatment approach (based on the mITT population defined above), including lipid data collected during the efficacy treatment period. This corresponds to on-treatment estimands of key secondary endpoints.\nWith regards to the primary efficacy analysis (ITT approach), the percent change in calculated LDL-C from baseline to Week 24 was analyzed using a mixed-effect model with repeated measures (MMRM) approach. All post-baseline data available from Week 4 to Week 52 analysis windows were used and missing data were accounted for by the MMRM. […] This model provided baseline adjusted least-squares means (LSmeans) estimates at Week 24 for both treatment groups with their corresponding SEs and 95% confidence intervals.\nContinuous secondary variables anticipated to have a normal distribution (i.e., lipids other than TGs and Lp(a)) were analyzed using the same MMRM model as for the primary endpoint. […] Combined estimate for mean in both treatment groups, as well as the differences of these estimates, with their corresponding SEs, 95% Cls and p-value were provided (through SAS MIANALYZE procedure).\nBinary secondary efficacy endpoints were analyzed using multiple imputation approach for handling of missing values followed by stratified logistic regression with treatment group as main effect and corresponding baseline value(s) as covariate, stratified by randomization factors (as per IVRS). Combined estimates of odds ratio versus placebo, 95% CI, and p-value were provided (through SAS MIANALYZE procedure)."}, "[3]": {"details": "On-treatment analysis, 150 Q2W (N = 1523)"}, "[4]": {"details": "On-treatment analysis, 150 Q2W (N = 1523), combined estimate for adjusted mean (SE)"}, "[5]": {"details": "Pattern Mixture Model sensitivity analysis, 150 Q2W (N = 1523)"}, "[6]": {"details": "Week 24, free PCSK9 levels at or above the median"}, "[7]": {"details": "Week 24, free PCSK9 levels below the median"}},
  "note": "Where “and” joins values, the source holds several entries; their conditions need not be identical. Equal values may be shown once.",
  "data": [
    {"substance": "Alirocumab: human anti-PCSK9 antibody; HCVR SEQ ID NO:1, LCVR SEQ ID NO:6; CDRs SEQ ID NOs 2/3/4/7/8/10", "values": [
      {"measurement": "Effect of anti-alirocumab antibodies on safety and efficacy", "setting": "[1]; in vivo", "value": "no observed effect on safety and efficacy"},
      {"measurement": "Median time to detection of antibodies to alirocumab", "setting": "[1]; in vivo", "value": 12, "unit": "weeks"},
      {"measurement": "Antibodies to alirocumab detected at baseline", "setting": "[1]; patients subsequently randomized to alirocumab (3/197)", "value": 1.5, "unit": "%"},
      {"measurement": "Anti-alirocumab antibody titer", "setting": "[1]; treatment-emergent positive patients", "value": "≤ 240"},
      {"measurement": "Percent change from baseline in calculated LDL-C at week 24 (%), LS means (SE)", "setting": "[2]; HeFH population (271 patients)", "value": "−56.3 (1.9) %"},
      {"measurement": "Percent change from baseline in calculated LDL-C at week 24, LS mean difference (SE) vs placebo", "setting": "[2]; HeFH population", "value": "−63.2 (2.9) %"},
      {"measurement": "Calculated LDL-C percent change, LS mean difference vs placebo", "setting": "[2]; ITT, Week 24", "value": "−61.9", "unit": "%"},
      {"measurement": "Calculated LDL-C, LS mean percent change from baseline", "setting": "[2]; ITT, Week 24", "value": "−61.0", "unit": "%"},
      {"measurement": "Measured LDL-C, LS mean percent change from baseline", "setting": "[2]; ITT, Week 24", "value": "−61.3", "unit": "%"},
      {"measurement": "Very high CV risk or high CV risk patients who reached calculated LDL-C <70 mg/dL or <100 mg/dL, respectively", "setting": "[2]; ITT, Week 24", "value": 80.7, "unit": "%"},
      {"measurement": "Proportion of patients reaching calculated LDL-C <70 mg/dL", "setting": "[2]; ITT, Week 24, listed as alirocumab", "value": "79.3% and 79%"},
      {"measurement": "Percent change from baseline in calculated LDL-C at week 24 (%), LS means (SE)", "setting": "[2]; Non-HeFH population (1259 patients)", "value": "−62.1 (0.8) %"},
      {"measurement": "Percent change from baseline in calculated LDL-C at week 24, LS mean difference (SE) vs placebo", "setting": "[2]; Non-HeFH population", "value": "−61.5 (1.4) %"},
      {"measurement": "Apo A1, LS mean (SE) change from baseline to Week 24 (%)", "setting": "[2]; [3]", "value": "4.2 (0.4) %"},
      {"measurement": "Apo A1, LS mean difference (SE) vs placebo, percent change from baseline at Week 24", "setting": "[2]; [3]", "value": "2.9 (0.7) %"},
      {"measurement": "Apo B, LS mean (SE) change from baseline to Week 24 (%)", "setting": "[2]; [3]", "value": "−54.3 (0.7) %"},
      {"measurement": "Apo B, LS mean difference (SE) vs placebo, percent change from baseline at Week 24", "setting": "[2]; [3]", "value": "−55.5 (1.2) %"},
      {"measurement": "Calculated LDL-C, LS mean (SE) change from baseline to Week 24 (%)", "setting": "[2]; [3]", "value": "−62.8 (0.7) %"},
      {"measurement": "Calculated LDL-C, LS mean difference (SE) vs placebo, percent change from baseline at Week 24", "setting": "[2]; [3]", "value": "−63.5 (1.2) %"},
      {"measurement": "HDL-C, LS mean (SE) change from baseline to Week 24 (%)", "setting": "[2]; [3]", "value": "4.2 (0.4) %"},
      {"measurement": "HDL-C, LS mean difference (SE) vs placebo, percent change from baseline at Week 24", "setting": "[2]; [3]", "value": "4.9 (0.7) %"},
      {"measurement": "Non-HDL-C, LS mean (SE) change from baseline to Week 24 (%)", "setting": "[2]; [3]", "value": "−53.1 (0.6) %"},
      {"measurement": "Non-HDL-C, LS mean difference (SE) vs placebo, percent change from baseline at Week 24", "setting": "[2]; [3]", "value": "−53.7 (1.0) %"},
      {"measurement": "Total cholesterol, LS mean (SE) change from baseline to Week 24 (%)", "setting": "[2]; [3]", "value": "−38.8 (0.5) %"},
      {"measurement": "Total cholesterol, LS mean difference (SE) vs placebo, percent change from baseline at Week 24", "setting": "[2]; [3]", "value": "−38.4 (0.8) %"},
      {"measurement": "Lipoprotein (a), LS mean difference (SE) vs placebo, percent change from baseline at Week 24", "setting": "[2]; [4]", "value": "−26.3 (1.3) %"},
      {"measurement": "Lipoprotein (a), change from baseline to Week 24 (%)", "setting": "[2]; [4]", "value": "−30.2 (0.7) %"},
      {"measurement": "Triglycerides, LS mean difference (SE) vs placebo, percent change from baseline at Week 24", "setting": "[2]; [4]", "value": "−17.2 (1.4) %"},
      {"measurement": "Triglycerides, change from baseline to Week 24 (%)", "setting": "[2]; [4]", "value": "−15.8 (0.8) %"},
      {"measurement": "Calculated LDL-C percent change, LS mean difference vs placebo", "setting": "[2]; On-treatment, Week 24", "value": "−63.5", "unit": "%"},
      {"measurement": "Proportion of patients reaching calculated LDL-C <70 mg/dL", "setting": "[2]; On-treatment, Week 24", "value": 81.2, "unit": "%"},
      {"measurement": "Very high CV risk or high CV risk patients who reached calculated LDL-C <70 mg/dL or <100 mg/dL, respectively", "setting": "[2]; On-treatment, Week 24", "value": 82.8, "unit": "%"},
      {"measurement": "Calculated LDL-C, LS mean (SE) change from baseline to Week 24 (%)", "setting": "[2]; [5]", "value": "−57.8 (0.8) %"},
      {"measurement": "Calculated LDL-C, LS mean difference (SE) vs placebo, percent change from baseline at Week 24", "setting": "[2]; [5]", "value": "−58.5 (1.3) %"},
      {"measurement": "Calculated LDL-C percent change from baseline, LS mean (SE)", "setting": "[2]; Week 4", "value": "−64.8", "unit": "%"},
      {"measurement": "Calculated LDL-C percent change from baseline, LS mean (SE)", "setting": "[2]; Week 8", "value": "−65.8", "unit": "%"},
      {"measurement": "Apo-B - Percent change from baseline to Week 12, LS mean difference vs. placebo", "setting": "[2]; Week 12, ITT", "value": "placebo of −56%"},
      {"measurement": "Apolipoprotein A1 - Percent change from baseline to Week 12, LS mean difference vs. placebo", "setting": "[2]; Week 12, ITT", "value": "placebo of 4%"},
      {"measurement": "Calculated LDL-C - Percent change from baseline to Week 12, LS mean difference vs. placebo", "setting": "[2]; Week 12, ITT", "value": "placebo of −64.8%"},
      {"measurement": "Fasting TGs - Percent change from baseline to Week 12, combined estimate for adjusted mean difference vs. placebo", "setting": "[2]; Week 12, ITT", "value": "vs. placebo of −17.9%"},
      {"measurement": "HDL-C - Percent change from baseline to Week 12, LS mean difference vs. placebo", "setting": "[2]; Week 12, ITT", "value": "placebo of 5.6%"},
      {"measurement": "Lp(a) - Percent change from baseline to Week 12, combined estimate for adjusted mean difference vs. placebo", "setting": "[2]; Week 12, ITT", "value": "vs. placebo of −25.1%"},
      {"measurement": "Non-HDL-C - Percent change from baseline to Week 12, LS mean difference vs. placebo", "setting": "[2]; Week 12, ITT", "value": "placebo of −54.6%"},
      {"measurement": "Total-C - Percent change from baseline to Week 12, LS mean difference vs. placebo", "setting": "[2]; Week 12, ITT", "value": "placebo of −39%"},
      {"measurement": "Calculated LDL-C percent change from baseline, LS mean (SE)", "setting": "[2]; Week 12", "value": "−63.3", "unit": "%"},
      {"measurement": "Calculated LDL-C - Percent change from baseline to Week 12, LS mean difference vs. placebo", "setting": "[2]; Week 12, On-treatment", "value": "placebo of −65.5%"},
      {"measurement": "Calculated LDL-C percent change from baseline, LS mean (SE)", "setting": "[2]; Week 16", "value": "−64.5", "unit": "%"},
      {"measurement": "Calculated LDL-C percent change, LS mean difference vs placebo", "setting": "[2]; [6]", "value": "−66.0", "unit": "%"},
      {"measurement": "Calculated LDL-C, LS mean percent change from baseline", "setting": "[2]; [6]", "value": "−62.7", "unit": "%"},
      {"measurement": "Calculated LDL-C percent change, LS mean difference vs placebo", "setting": "[2]; [7]", "value": "−58.0", "unit": "%"},
      {"measurement": "Calculated LDL-C, LS mean percent change from baseline", "setting": "[2]; [7]", "value": "−59.4", "unit": "%"},
      {"measurement": "Calculated LDL-C percent change, LS mean difference vs placebo", "setting": "[2]; Week 24, men", "value": "−64.7", "unit": "%"},
      {"measurement": "Calculated LDL-C, LS mean percent change from baseline", "setting": "[2]; Week 24, men", "value": "−65.5", "unit": "%"}
    ]}
  ]
}
